Series [1] is described as follows: Maximal tolerated dose (MTD) / tolerability in BALB/c nude mice. In kind it is in vivo. As to conditions: for MTD: female, BALB/c nude, mouse, in vivo, po. The method, then: In order to find a dose that could be used for further experiments and in order to show tolerability of compounds of the present invention, female BALB/c nude mice were treated with Cpd. 3 and Cpd. 8 by per oral (p.o.) gavage twice for five days with a two day dose holiday in between. Compounds were administered in the following vehicle: 20% Hydroxypropyl-β-cyclodextrin (HPBCD), 10% DMSO and 70% water. The major endpoint was to evaluate the body weight loss and animal survival. The body weights were recorded daily for the dosing days and at least twice weekly thereafter. The animal death was checked daily for survival. Animals were to be evaluated for 7 days post the final dose. The tolerated dose was defined as the dose that results in less than 20% mean body-weight loss, and no treatment related death during the study. The randomized block design was used to assign experimental animals to groups. First, the experimental animals were divided into homogeneous blocks according to their initial body weight. Secondly, within each block, randomization of experimental animals to treatments was conducted.
Animal supplier: Shanghai Lingchang Bio-Technology Co. Ltd (LC, Shanghai, China). Animal Certificate No.: 2013001803305. The mice were kept in individual ventilated cage (IVC) systems at constant temperature and humidity with 5 animals in each cage.
Diet: Mouse diet, C060 irradiation sterilized dry granule food. Animals had free access during the entire study period. Water: RO water, autoclaved before using. Animals had free access to sterile drinking water.
OVCAR-3 and SUDHL/6 tumor bearing BALB/c nude mice were treated with Cpd. 3, p.o. at 100 mg/kg for 21 or 15 consecutive days, respectively under the same conditions. Body weight of the mice was stable.

Series [2] relates to STHdh^Q7/Q7 and STHdh^Q111/Q111 cells. The series can be described thus: PrestoBlue assay (cell viability/metabolic activity). As to conditions: for metabolic activity (PrestoBlue) at 72 hours: 1230 nM, STHdh^Q111/Q111; for mitochondrial activity: at lower concentration. It counts as cell-based, mouse. How it is done: Cell viability/metabolic activity was detected using the PrestoBlue viability reagent (Invitrogen, USA) according to the manufacturer's instructions. […] 3 (130 nM, 1230 nM), Cpd. […] Non-toxic concentrations determined were transferred to primary neurons used later on in this study. […] At lower concentration of Cpd. 3 and Cpd. […] 8 in STHdh^Q111/Q111. […] Wild type cells are less sensitive to mTOR inhibition and 2.

Series [3] is described as follows: R6/2 pharmacokinetics (plasma, striatum, cerebellum, cortex). It counts as in vivo, mouse. Particulars: R6/2 mice, single oral dose, one hour; Cpd. 3 75, 50, 25 mg/kg; Cpd. 8 25, 16, 8 mg/kg. How it is done:
In order to test exposure of brain areas, R6/2 mice were treated with a single oral dose of Cpd. 3 (75 mg/kg, 50 mg/kg, 25 mg/kg) or Cpd. 8 (25 mg/kg, 16 mg/kg, 8 mg/kg), 3 animals per group. After one hour plasma was collected and animals were sacrificed. Striatum, cerebellum and cortex was separately snap frozen and analyzed for compound concentration using LC/MS/MS.

In series [4] the test system is STHdh^Q7/Q7 and STHdh^Q111/Q111 cells. Kind of series: LDH assay (cytotoxicity). As to conditions: for LDH activity compared to control: at higher concentrations; for LDH production: time points between 24 h and 48 h.
Method: Cytotoxicity of test compounds was measured using the lactate dehydrogenase (LDH) assay from Roche, Switzerland according to the manufacturer's instructions.
STHdh^Q111/Q111 and STHdh^Q7/Q7 (Coriell Institute for Medical Research, USA) were cultured in DMEM (Invitrogen, USA) supplemented with FBS (Invitrogen, USA) 10%, Geniticine (G418, Biochrom, Germany)) 1% und antibiotic antimycotic (Invitrogen, USA) 1% in a humidified incubator at 37° C. and 5% CO2. […] 10^4 STHdh^Q7/Q7 and STHdh^Q111/Q111 cells per well were seeded in a 96 well plate incubated with Cpd.
Series [5] concerns mTOR signaling (S6rP and 4E-BP phosphorylation) in STHdh^Q7/Q7 and STHdh^Q111/Q111 cells. Kind of series: mTOR signaling in STHdh cells (western blot). In kind it is cell-based, mouse. As to conditions: 4 hours. A general note: Immunoblotting shows a protein as a band on a membrane.
Method: 8 inhibit mTOR signaling and induce autophagy in neuronal cell models of HD, treatment of STHdh^Q111/Q111 and STHdh^Q7/Q7 cells was employed. […] Cells were seeded in 10 cm dishes. When cells were about 80% confluent, cells were differentiated and treated with compounds at the same time. […] At the end of incubation time cells were washed with cold PBS buffer and lysed with 200 μl of RIPA buffer supplemented with 4% Complete protease inhibitor (Roche, Switzerland) and 10% PhosStop (Roche, Switzerland). After 30 min of incubation on ice, lysates were vortexed, centrifuged (20 min, 4° C., 16000 rpm) and supernatants were collected. […] 30 μg of protein per sample was analyzed by western blot as described above using the following primary antibodies:
For series [6], the system named is 51Q-HTT-Exon1-eGFP transfected HEK cells. The series can be described thus: Immune cytochemistry, count of mutHTT aggregates. It counts as cell-based, human. Particulars: Cpd. 8 130 nM, Cpd. 3 400 nM. How it is done:
HEK cells were transiently transfected with pcDNA3.1/V5-His vector from Clontech (Mountain View, USA) containing the expression sequence for Exon1 of HTT with a 19Q (no aggregation) or 51Q extension and enhanced green fluorescence protein (eGFP) tag using Attractene Transfection Reagent (Qiagen, Netherlands). 1×10^6 cells were seeded in a 6 well plate. On the next day 2 μg DNA were mixed with 95.5 μl transfection media and 4.5 μl transfection reagent. After an incubation time of 15 min the mixture was added to the cells. After 72 hours cells were harvested or fixed for analysis.
HEK cells were seeded in poly-L-lysine (Sigma-Aldrich, USA) coated coverslips in 24 well plates at 10^4 cells per well and transiently transfected with 19Q- or 51Q-HTT-Exon1-eGFP. Cells were treated with Compounds as described under A for 8 or 24 hours. This incubation ended 72 hours after transfection. Cells were fixed with 4% (para-formaldehyde) PFA. Coverslips were fixed glass slides using mounting media that contained 4′,6-Diamidin-2-phenylindol (DAPI) (FIG. 7C). Nuclei and aggregates containing HTT-Exon1-eGFP were counted manually. 10 000 cells were counted per sample (FIG. 7D).

SMILES strings stand for the structures. Entries after “also recorded” stand apart in the source; their conditions may differ. Where two headings read alike, the source gives them in different places.

A word on the MTD: it is the highest dose tested that stayed within the study's limit of toxicity.

Consider `Nc1cc(C(F)F)c(-c2nc(N3C4CCC3COC4)nc(N3C4CCC3COC4)n2)cn1` [Compound 3, 5-(4-(3-oxa-8-azabicyclo[3.2.1]octan-8-yl)-6-(3-oxa-8-azabicyclo[3.2.1]octan-8-yl)-1,3,5-triazin-2-yl)-4-(difluoromethyl)pyridin-2-amine], for which the “Body weight of the mice” value in series [1] (OVCAR-3 and SUDHL/6 tumor bearing BALB/c nude mice, p.o. 100 mg/kg for 21 or 15 consecutive days) is reported as “stable”. For the same molecule, in series [1] (BALB/c mice, p.o., twice for five days with a two day dose holiday, read-out: MTD), the MTD is 100 mg/kg. Besides, in series [2], the “metabolic activity (PrestoBlue) at 72 hours” value was “slight inhibition; also recorded: decreased metabolic activity” and the mitochondrial activity result is given as “slight increase in mitochondrial activity”. Also, the Tissue concentrations reached entry in series [3] is listed as “well in the efficacious range”. In addition, in series [4], the “LDH activity compared to control” value is given as “decreased compared to control” and the LDH production entry was “reduced LDH production”. The “mTOR signaling (S6rP phosphorylation and 4E-BP phosphorylation)” value in series [5] (Cpd. 3 200, 400, 1230 nM, Cpd. 8 130, 1230 nM, INK128 100 nM, rapamycin 400 nM) was “reduced S6rP phosphorylation and 4E-BP phosphorylation”. Further, the “reduction of number of mutHTT aggregates” value in series [6] (8 hours of treatment) came to 66%. Besides, the “reduction of number of mutHTT aggregates” value in series [6] (24 hours of treatment) turned out to be 73%.
`C[C@H]1COCCN1c1nc(-c2cnc(N)cc2C(F)F)nc(N2CCOCC2)n1` [Compound 8, (S)-4-(difluoromethyl)-5-(4-(3-methylmorpholino)-6-morpholino-1,3,5-triazin-2-yl)pyridin-2-amine] displayed an MTD in series [1] of 25 mg/kg. In addition, in series [2], the “metabolic activity (PrestoBlue) at 72 hours” value was “not significantly” and the mitochondrial activity entry was “slight increase in mitochondrial activity”. Further, the Tissue concentrations reached entry in series [3] is given as “sufficient levels were reached at all concentrations”. Also, in series [4], the “LDH activity compared to control” value was “decreased compared to control” and the LDH production result is listed as “reduced LDH production”. Moreover, in series [5] (STHdh^Q7/Q7 cells), the “low concentration at which an effect on mTOR signaling could already be observed” value came to 130 nM. In series [6] (8 hours of treatment), the “reduction of number of mutHTT aggregates” value is 55%. The “reduction of number of mutHTT aggregates” value in series [6] (24 hours of treatment) is listed as 77%.

(Values after patent US11878972B2, “Treatment of neurological disorders” (TORQUR AG, priority 2016, dated 2024).)
